Results reported in publication PMC12631437, “Evaluation of the Activity of 4‑Quinolones against Multi-Life Stages of Plasmodium spp” (ACS Omega, 2025).
In brackets after ≈: the same amount, converted by molar mass.

How the values were obtained:
[1] = test system: Plasmodium falciparum 3D7 sensitive strain; assay: SYBR Green growth assay, asexual blood stages, 3D7 sensitive strain; assay type: cell-based; settings: Plasmodium falciparum, 3D7, 72 h, asexual blood stages, 3D7 sensitive strain, 72 h; read-out: IC50
Experimental: (§1) Parasite strains SB1-A6, 7G8, V1/S, and HB3 were acquired from BEI-MR4, while the ATQ R1 strain, carrying a V259L gene mutation, was generated in-house. […] Parasitemia was monitored using Giemsa-stained blood smears.
(§2) Bioassays were conducted with synchronized ring-stage parasites using sorbitol synchronization. Antimalarial compounds were evaluated in 96-well plates, and parasite growth was assessed using a SYBR Green-based fluorescence assay The assays were conducted when the parasite quantity reached at least 70% of the ring stage. Compounds were initially added at specific concentrations in the first wells, followed by serial dilution (1:2) ranging from 20 μM to 0.009 μM. Subsequently, a solution containing parasites in RPMI medium at a hematocrit of 2% was added to each well, and the parasites were then incubated for 72 h.
(§3) The IC50 values were determined using concentration–response curves generated in GraphPad 8 software. Additionally, the resistance index was calculated by comparing IC50 values obtained for the sensitive 3D7 strain with those of the resistant strains.

[2] = test system: P. falciparum HB3 strain; assay: SYBR Green growth assay, asexual blood stages, HB3 strain; assay type: cell-based, Plasmodium falciparum; settings: Plasmodium falciparum; HB3 strain, 72 h; read-out: IC50
Experimental: as §1, §2, §3

[3] = test system: P. falciparum V1/S strain; assay: microbe, parasite or virus in culture; assay type: cell-based, Plasmodium falciparum; settings: Plasmodium falciparum, 72 h
Experimental: (§4) Healthy blood samples for parasite culture were obtained from voluntary donors (approved under protocol #28176720.9.0000.0011), processed to remove white blood cells, and stored at 2 °C–8 °C for up to 15 days. Parasite strains SB1-A6, 7G8, V1/S, and HB3 were acquired from BEI-MR4, while the ATQ R1 strain, carrying a V259L gene mutation, was generated in-house. Infected erythrocytes were cultured in RPMI 1640 medium supplemented with Hepes, sodium bicarbonate, glucose, Albumax, and gentamicin, […], and incubated in a 5% CO2, 5% O2, and 90% N2 gas mixture at 37 °C with daily medium changes. Parasitemia was monitored using Giemsa-stained blood smears.
as §2
(§5) To assess parasite growth, the culture medium was replaced with a lysis solution (Trisbase: 49.31%, EDTA: 30.00%, Saponin: 0.16%, Triton: 0.02%) containing the fluorescent dye SYBR Green (Sigma). After a 30 min incubation, fluorescence readings were taken to determine the 50% inhibitory concentration (IC50) of parasite growth. The IC50 values were determined using concentration–response curves generated in GraphPad 8 software. Additionally, the resistance index was calculated by comparing IC50 values obtained for the sensitive 3D7 strain with those of the resistant strains.

[4] = test system: P. falciparum 7G8 strain; assay: SYBR Green growth assay, asexual blood stages, 7G8 strain; assay type: cell-based, Plasmodium falciparum; settings: Plasmodium falciparum; 7G8 strain, 72 h; read-out: IC50
Experimental: as §4, §2, §5

[5] = test system: P. falciparum SB1-A6 strain; assay: SYBR Green growth assay, asexual blood stages, SB1-A6 strain; assay type: cell-based, Plasmodium falciparum; settings: Plasmodium falciparum, 72 h
Experimental: as §4, §2, §5

[6] = test system: P. falciparum ATQ_R1 strain; assay: SYBR Green growth assay, asexual blood stages, ATQ_R1 strain; assay type: cell-based, Plasmodium falciparum; settings: Plasmodium falciparum, 72 h
Experimental: as §4, §2, §5

[7] = test system: P. vivax ookinetes; assay: Ex vivo P. vivax ookinete formation assay with patient isolates; assay type: cell-based, Plasmodium vivax; settings: Plasmodium vivax, 24 h, 10 μM, n = 6 patients, read-out: P. vivax ookinete formation inhibition (median)
Experimental: Participants were recruited from patients diagnosed with P. vivax malaria via Giemsa-stained blood smears at CEPEM in Porto Velho, Rondônia, Brazil (#28176720.9.0000.0011). Criteria included: P. vivax parasitemia >2000 parasites/μL, age 18–85, no severe malaria, no concomitant diseases, nonpregnant, and consent to study procedures. Approximately 10 mL of venous blood was collected into heparin-coated vials, maintained at 37 °C, and transported to PIVEM for DMFA. Malaria treatment followed Brazilian Ministry of Health guidelines and was unaffected by study participation. […] Erythrocytes were washed with incomplete RPMI-1640 medium by centrifugation at 1500 rpm for 10 min to remove leukocytes. […] The sample was centrifuged once at 450 g for 15 min without a brake. After centrifugation, the pellet remaining at the interface was collected and washed twice at 2000 g for 5 min. […] The parasites were incubated for 24 h at a temperature of 21–24 °C. After this period, the activity of the compounds was determined by microscopy, counting 100 fields to determine the parasitemia per μL in each sample, and counting the mature and immature ookinetes. […] Red blood cells were then washed with incomplete RPMI-1640 medium through centrifugation at 1500 rpm for 10 min to remove leukocytes. […] The sample was centrifuged once at 2000 rpm for 15 min without brake. After centrifugation, the remaining pellet at the interface was collected and washed twice at 2000 rpm for 5 min. […] Parasites were incubated for 24 h at a temperature of 21–24 °C. After this period, compound activity was determined by microscopy counting in 100 fields to determine parasitemia per μL in each sample.

[8] = test system: HepG2 cells; assay: Mitochondrial toxicity, HepG2 cells cultured in glucose or galactose (resazurin); assay type: cell-based; settings: HepG2 under either condition (glucose or galactose), 3.125–50 μM, 24 h
Experimental: To evaluate mitochondrial toxicity, HepG2 cells were cultured in RPMI-1640 medium under two metabolic conditions: one group was maintained in standard RPMI supplemented with 2 g/L glucose (glucose condition), while the second group was gradually adapted to rely on galactose as the primary energy source. For this adaptation, glucose levels were reduced by 20% every 2 days until reaching a final concentration of 20% of the original glucose amount. On the day of the assay, the […] cells were cultured in glucose-free RPMI medium supplemented with 10 mM galactose. When cells reached 80% confluence, they were detached using 2 mL of trypsin-EDTA solution (0.2 g of EDTA) for 5 min at 37 °C, then resuspended in fresh medium and centrifuged at 100 × g for 1 min. After centrifugation, cells were counted using a Neubauer chamber and seeded at […] per well in 96-well plates containing 180 μL of culture medium. Plates were incubated at 37 °C with 5% CO2 for 12–16 h to allow for cell adhesion. […] After treatment, 40 μL of a 0.15 mg/mL resazurin solution (RSZ) was added to each well and incubated for an additional 5 h. RSZ is a nontoxic, cell-permeable blue dye that is reduced by metabolically active cells to highly fluorescent pink resorufin. Fluorescence was measured using a fluorimeter with excitation/emission at 560/590 nm. Cell viability was calculated relative to untreated controls (set at 100%), determined using GraphPad Prism 8.

[9] = test system: 164/GFP; settings: strain 164/GFP; cited from earlier work
[10] = test system: TM90C2B; settings: strain TM90C2B; cited from earlier work
[11] = test system: P. falciparum oocysts in An. freeborni; set-up: method as in Sáenz et al.; settings: early stage gametocyte treatments; ref Sáenz et al.; cited from earlier work
[12] = test system: P. falciparum salivary gland infections in mosquitoes; set-up: method as in Sáenz et al.; settings: drug-treated blood at 1 μM, compared to untreated control; ref Sáenz et al.; cited from earlier work
[13] = test system: P. falciparum hepatic stages; settings: cited from earlier work

O=C1C(O)=C([C@H]2CC[C@H](c3ccc(Cl)cc3)CC2)C(=O)c2ccccc21 [Atovaquone, atovaquone, reference compound]
IC50 [1]: 1 ± 0.4 nM
IC50 [2]: 0.7 ± 0.4 nM
IC50 [3]: 9 ± 0.8 nM
IC50 [4]: 6 ± 4 nM
IC50 [5]: > 10000 nM
IC50 [6]: > 10000 nM
inhibition at 10 µM [7]: 97%
cell survival [8]: ≥ 60%

CCCCCCCCCCOc1cc2c(O)c(C(=O)OCC)cnc2cc1OCC [Decoquinate]
IC50 [9]: 10 nM

CCCCCCCc1c(C)[nH]c2cc(F)cc(F)c2c1=O [ELQ-121]
IC50 [10]: 1.7 nM

CCCCc1cc2c(=O)c(C(=O)OCC)c[nH]c2cc1OCCOc1ccccc1 [ICI 56.780]
reduction in oocyst numbers [11]: 100%
reduction of salivary gland infections [12]: 80%

N[C@@H]1[C@H]2CN(c3nc4c(cc3F)c(=O)c(C(=O)O)cn4-c3ccc(F)cc3F)C[C@@H]12 [trovafloxacin]
IC50 P. falciparum hepatic stages [13]: 21.6 ± 2.6 µg/mL (≈ 51.9 µM)
